Reference: US8372978B2, “Salts of methyl 2-((R)-(3-chlorophenyl)((R)-1-((S)-2-(methylamino)-3-((R)-tetrahydro-2H-pyran-3-yl)propylcarbamoyl)piperidin-3-yl)methoxy)ethylcarbamate” (Vitae Pharmaceuticals, Inc., priority 2009, dated 2013)
Where a name gives a salt, the structure may show the parent alone. One block for each compound: values may come before it.

What was measured:
[1] = Pharmacokinetics after oral administration, plasma by LC/MS/MS, rat; assay type: in vivo; conditions: for AUC(0-t) / DNAUC0-t / Cmax: oral, 10 mg/kg (as salt), 0.5% methylcellulose in water
Procedure: IV formulations were prepared in 1% DMSO in sterile saline. PO formulations were prepared in 0.5% methylcellulose in water, unless otherwise indicated. After compound administration, plasma samples were obtained through 24 hours post-dosing from each animal using K2EDTA as the anticoagulant. Plasma samples were treated with two volumes of acetonitrile containing an internal standard (ritanserin). Samples were centrifuged at 4,000 rpm for 10 minutes at 25° C. Ten microliters of the supernatant was analyzed using LC/MS/MS. Standard curves are prepared for each species and range from 1.0 to 500 ng/mL The compound of Formula (I) and the internal standard were separated by reverse-phase HPLC using a gradient mobile phase and detected by +APCI monitoring the transitions m/z 525→327 (compound of Formula (I)) and m/z 478→193 (ritanserin).

[2] = Pharmacokinetics after oral administration, plasma by LC/MS/MS, dog; assay type: in vivo; conditions: for DNAUC0-t / AUC(0-t) / Cmax: oral; for AUC(0-t) / Cmax: plasma
Procedure: (§1) IV formulations were prepared in 1% DMSO in sterile saline. PO formulations were prepared in 0.5% methylcellulose in water, unless otherwise indicated. After compound administration, plasma samples were obtained through 24 hours post-dosing from each animal using K2EDTA as the anticoagulant. Plasma samples were treated with two volumes of acetonitrile containing an internal standard (ritanserin). Samples were centrifuged at 4,000 rpm for 10 minutes at 25° C. Ten microliters of the supernatant was analyzed using LC/MS/MS.

[3] = Pharmacokinetics after oral administration, plasma by LC/MS/MS, monkey; assay type: in vivo; conditions: for DNAUC0-t / AUC(0-t) / Cmax: oral, 0.5% methylcellulose in water; for AUC(0-t) / Cmax: plasma
Procedure: as §1

Water solubility = assay type: physicochemical
Hygroscopicity = assay type: physicochemical
[4] = 1 mg/kg (as salt), 2% DMSO in water
[5] = 2 mg/kg (as salt), 0.5% methylcellulose in water

AUC(0-t) [1]: 477 ng·h/mL
DNAUC0-t [1]: 48 ng·h/mL
Cmax ([1]; plasma): 156 ng/mL
DNAUC0-t [2, 4]: 458 ng·h/mL
AUC(0-t) [2, 4]: 458 ng·h/mL
Cmax [2, 4]: 286 ng/mL
DNAUC0-t ([3]; 2 mg/kg (as salt)): 191 ng·h/mL
AUC(0-t) ([3]; 2 mg/kg (as salt)): 381 ng·h/mL
Cmax ([3]; 2 mg/kg (as salt)): 145 ng/mL
Structure (SMILES): CN[C@H](CNC(=O)N1CCC[C@@H]([C@@H](OCCNC(=O)OC)c2cccc(Cl)c2)C1)C[C@H]1CCCOC1.O=C(O)/C=C/C(=O)O [Fumarate, methyl 2-((R)-(3-chlorophenyl)((R)-1-((S)-2-(methylamino)-3-((R)-tetrahydro-2H-pyran-3-yl)propylcarbamoyl)piperidin-3-yl)methoxy)ethylcarbamate fumaric acid salt]

in vivo bioavailability (in words) [1]: good in vivo bioavailability
DNAUC0-t [1]: 68 ng·h/mL
Cmax ([1]; plasma): 238 ng/mL
AUC(0-t) ([1]; plasma, read-out: AUC0-t): 681 ng·h/mL
in vivo bioavailability (in words) [2]: good in vivo bioavailability
DNAUC0-t [2, 5]: 447 ng·h/mL
AUC(0-t) [2, 5]: 895 ng·h/mL
Cmax [2, 5]: 294 ng/mL
in vivo bioavailability (in words) [3]: good in vivo bioavailability
DNAUC0-t ([3]; 3 mg/kg (as salt)): 269 ng·h/mL
AUC(0-t) ([3]; 3 mg/kg (as salt)): 807 ng·h/mL
Cmax ([3]; 3 mg/kg (as salt)): 266 ng/mL
water solubility (in words) (Water solubility): good water solubility
solubility (Water solubility; water, temperature not stated): 65 ± 5 mg/mL
hygroscopicity (in words) (Hygroscopicity): sufficiently non-hygroscopic
Structure (SMILES): CN[C@H](CNC(=O)N1CCC[C@@H]([C@@H](OCCNC(=O)OC)c2cccc(Cl)c2)C1)C[C@H]1CCCOC1 [Mucate, methyl 2-((R)-(3-chlorophenyl)((R)-1-((S)-2-(methylamino)-3-((R)-tetrahydro-2H-pyran-3-yl)propylcarbamoyl)piperidin-3-yl)methoxy)ethylcarbamate mucic acid salt (Form B)]
